Patent publication US20030096957A1, “AFX (zeta) transcription factor splice form” (priority 2001, published 2003)

Key:
Format in all cases: cell-based, human
[1] = test system: AFXζ-induced PEPCK p-SEAP activity; assay: PEPCK p-SEAP reporter assay in HepG2 cells transfected with AFXζ
Experimental: (§1) FIG. 4. Effect of insulin on the transcriptional activity of AFXζ. HepG2 cells were transiently transfected with pcDNA6/His-AFXζ and PEPCK p-SEAP (A) or PEPCK IRS-SEAP (B). Twenty-four hours after transfection, cells were treated with insulin at the indicated concentration in fresh media and incubated for another 15-18 hours. SEAP and β-galactosidase activities were measured. The relative activation levels were standardized by comparison to the reporter activity from transfected cells without insulin treatment (A) or untreated cells transfected with the reporter alone (B). All values represent the means±S.D. of 3 independent experiments.
FIG. 5. Effect of bpV (peroxovanadate) and PKB on the transcriptional activity of AFXζ. A. HepG2 cells were transiently transfected with PEPCK p-SEAP and pcDNA6/His-AFXζ. Twenty-four hours after transfection, cells were treated with bpV at the indicated concentration in fresh media and were incubated for another 15-18 hours. The relative activation level was standardized by comparison to the reporter activity from transfection without bpV treatment. B. HepG2 cells were transiently cotransfected with the reporter constructs and pcDNA6/His-AFXζ with (filled bars) or without (open bars) the plasmid encoding myr-Akt1, which constitutively expresses active PKB. Forty-eight hours after transfection, SEAP and β-galactosidase activities were measured. The relative activation levels were standardized comparing with the activity from corresponding transfection with reporter alone. All values represent the means±S.D. of 3 independent experiments.
(§2) FIG. 6. Effect of AICAR on the transcriptional activity of AFXζ. A. HepG2 cells were transiently transfected with AFXζ and PEPCK p-SEAP (A) or PEPCK IRS-SEAP (B). Twenty-four hours after transfection, cells were treated with AICAR at indicated concentration in fresh media and incubated for another 15-18 hours. SEAP and β-galactosidase activities were measured. The relative activation levels were standardized by comparison to the activity from cells without AICAR treatment (A) or untreated cells transfected with the reporter alone (B). All values represent the means±S.D. of 3 independent experiments.
Double-stranded DNA fragments containing each of the IRS elements from the promoters of PEPCK, IGFBP- 1 and G6Pase were cloned into the Nhe I/Bgl II site of pSEAP2-promoter vector (Clontech). Dissected fragments of the PEPCK and IGFBP-1 IRS elements, referred as PEPCK-a, PEPCK-b and IGFBP-1a, IGFBP-1b, respectively, were cloned into the same site of pSEAP2-promoter. In addition, a 501 bp fragment corresponding to the human PEPCK 5′ regulatory sequence (−458 to +43 relative to the transcription start site, abbreviated as PEPCK p) was cloned into the Bgl II/EcoR I site of the same vector. […]

[2] = test system: AFXζ-induced PEPCK IRS-SEAP activity; assay: PEPCK IRS-SEAP reporter assay in HepG2 cells transfected with AFXζ
Experimental: as §1, §2
Double-stranded DNA fragments containing each of the IRS elements from the promoters of PEPCK, IGFBP- 1 and G6Pase were cloned into the Nhe I/Bgl II site of pSEAP2-promoter vector (Clontech). Dissected fragments of the PEPCK and IGFBP-1 IRS elements, referred as PEPCK-a, PEPCK-b and IGFBP-1a, IGFBP-1b, respectively, were cloned into the same site of pSEAP2-promoter. […]
The human hepatoma cell line HepG2 was cultured in Dulbecco's Modified Eagle's Medium (DMEM) with 10% Fetal Bovine Serum (FBS, Life Technologies). […] Secreted alkaline phosphatase (SEAP) and β-galactosidase activities were measured using Phospha-Light and Galacto-Star systems (Tropix Inc., Bedford, Mass.), respectively.

HepG2 cells = test system: HepG2 cells
Experimental: The human hepatoma cell line HepG2 was cultured in Dulbecco's Modified Eagle's Medium (DMEM) with 10% Fetal Bovine Serum (FBS, Life Technologies). Transient transfection experiments were performed in DMEM supplemented with 10% dialyzed FBS in 24-well plates. A DNA construct (0.2 μg unless otherwise specified) corresponding to IRS-SEAP, pcDNA6/His-AFXα or -AFXζ and CMV-β was added. Each set of reporter assay includes a transfection in which no AFX expression construct was added. In experiments where PKB effect was tested, 0.2 μg myr-Aktl in pUSEamp(+) (Upstate Biotechnology, Lake Placid, N.Y.), which constitutively expresses activated PKB, was included. Lipofectamine 2000 reagent (Life Technologies) was used for DNA transfection following the manufacturer's instruction. For experiment in which the cells were treated with soluble agents, the medium was changed 24 hours after the transfection. Cells were then treated with appropriate concentrations of bpV [potassium bisperoxo(1,1 0-phenanthroline) oxovanadate(V), Alexis Biochemicals, San Diego, Calif.], porcine insulin, or AICAR (5-aminoimidazole-4-carboxamide-1-β-D-ribofuranoside, Sigma, St. Louis, Mo.) in fresh media for another 15-18 hours. Secreted alkaline phosphatase (SEAP) and β-galactosidase activities were measured using Phospha-Light and Galacto-Star systems (Tropix Inc., Bedford, Mass.), respectively.

NC(=O)c1ncn([C@@H]2O[C@H](CO)[C@@H](O)[C@H]2O)c1N [AICAR, 5-aminoimidazole-4-carboxamide-1-β-D-ribofuranoside]
transcriptional activity of AFXζ on the PEPCK promoter, % of untreated cells ([1]; HepG2, 200 μM AICAR): 48% | induced PEPCK IRS-SEAP activity, % of the stimulation ascribed to transfected AFXζ ([2]; HepG2, 200 μM AICAR): 20%

O.O.O.OO.OO.[K+].[OH-].[V].c1cnc2c(c1)ccc1cccnc12 [bpV, potassium bisperoxo(1,1 0-phenanthroline) oxovanadate(V)]
AFXζ-induced PEPCK p-SEAP reporter activity ([1]; HepG2, 5 μM bpV): below the basal level | lowest concentration repressing AFXζ-induced PEPCK p-SEAP reporter gene activity ([1]; HepG2, 15-18 hours): 0.5 µM | concentration with toxicity in HepG2 cells (reduction of control galactosidase activity) (HepG2 cells): above 5 μM

insulin: porcine insulin used to treat transfected HepG2 cells
induced PEPCK p-SEAP activity compared with the untreated cells ([1]; HepG2, increasing concentrations of insulin, 15-18 hours): 50% | AFXζ-induced PEPCK IRS-SEAP reporter activity ([2]; HepG2, 200 nM insulin): to the basal level | PEPCK IRS-SEAP activity ([2]; HepG2 cells in which exogenous AFXζ had not been introduced): repressed
